One experiment has as its target T1, human DGKα (Homo sapiens, UniProt P23743).
T1 construct: TVMV protease cleavage site (C); Hexa-His (C); made in house; host or cells: Sf9 insect cells (baculovirus, Bac-to-Bac)
Kind of experiment: DGKα LIPGLO assay (extruded liposome substrate), in vitro DGK inhibition. The experiment is classed as biochemical. To be noted: read-out: DGKa LIPGLO IC50.

In a further experiment the target is T2, human DGKζ (Homo sapiens, UniProt Q13574).
T2 construct: TVMV protease cleavage site (C); Hexa-His (C); made in house; host or cells: Sf9 insect cells (baculovirus, Bac-to-Bac)
Nature of the experiment: DGKζ LIPGLO assay (extruded liposome substrate), in vitro DGK inhibition. To be noted: read-out: DGKz LIPGLO IC50. It is filed as biochemical.

A further experiment relates to Human venous whole blood. Nature of the experiment: Human whole blood IFN-γ assay.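 Further: blood from healthy donors exposed to compound for 1 h before stimulation with anti-CD3 and anti-CD28 at 1 µg/mL each, IFN-γ quantified in supernatant by AlphaLISA.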 To be noted: human whole blood, read-out: INFg Whole Blood Normalized Agonist EC50. It is filed as cell-based.
[1] abbreviates: normalized to 3 μM reference compound with anti-CD3 plus anti-CD28 as 100% activation.
Setting [2] is: Homo sapiens, 24 h, normalized to 3 μM reference compound with anti-CD3 plus anti-CD28 as 100% activation.
Setting [3] is: anti-CD3 plus anti-CD28, 24 hours, 3 μM reference compound = 100% activation.

Read-outs that look alike come from different tables or passages of the source.

T2 sequence (Q13574 with tags, fused parts or gaps isoform Q13574-4): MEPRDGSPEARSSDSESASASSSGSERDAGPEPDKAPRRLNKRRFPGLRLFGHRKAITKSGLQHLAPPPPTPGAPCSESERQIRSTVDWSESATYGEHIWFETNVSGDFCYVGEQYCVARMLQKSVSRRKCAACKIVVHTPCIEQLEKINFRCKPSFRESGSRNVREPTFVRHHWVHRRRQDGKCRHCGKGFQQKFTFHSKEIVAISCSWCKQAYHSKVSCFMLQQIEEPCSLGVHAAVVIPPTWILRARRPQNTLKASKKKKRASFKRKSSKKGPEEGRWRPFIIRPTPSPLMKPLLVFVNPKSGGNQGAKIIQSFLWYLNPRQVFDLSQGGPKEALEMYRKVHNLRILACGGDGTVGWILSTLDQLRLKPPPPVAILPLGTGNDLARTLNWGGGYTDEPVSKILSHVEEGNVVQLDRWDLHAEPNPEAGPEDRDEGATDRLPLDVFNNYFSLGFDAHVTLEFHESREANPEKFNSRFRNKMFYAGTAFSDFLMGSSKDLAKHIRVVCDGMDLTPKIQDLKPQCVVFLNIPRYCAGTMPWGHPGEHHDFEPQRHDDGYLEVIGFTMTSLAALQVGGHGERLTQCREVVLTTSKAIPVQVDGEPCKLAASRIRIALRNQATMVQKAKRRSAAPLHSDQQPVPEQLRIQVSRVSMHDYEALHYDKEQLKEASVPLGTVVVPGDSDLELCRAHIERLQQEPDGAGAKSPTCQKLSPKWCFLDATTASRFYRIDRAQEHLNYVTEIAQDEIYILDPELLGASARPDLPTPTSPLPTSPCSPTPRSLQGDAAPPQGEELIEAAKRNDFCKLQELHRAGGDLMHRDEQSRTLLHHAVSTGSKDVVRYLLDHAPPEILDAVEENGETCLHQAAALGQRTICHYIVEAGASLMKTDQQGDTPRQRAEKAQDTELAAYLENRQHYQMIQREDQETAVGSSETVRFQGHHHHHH
T1 sequence (P23743 with tags, fused parts or gaps): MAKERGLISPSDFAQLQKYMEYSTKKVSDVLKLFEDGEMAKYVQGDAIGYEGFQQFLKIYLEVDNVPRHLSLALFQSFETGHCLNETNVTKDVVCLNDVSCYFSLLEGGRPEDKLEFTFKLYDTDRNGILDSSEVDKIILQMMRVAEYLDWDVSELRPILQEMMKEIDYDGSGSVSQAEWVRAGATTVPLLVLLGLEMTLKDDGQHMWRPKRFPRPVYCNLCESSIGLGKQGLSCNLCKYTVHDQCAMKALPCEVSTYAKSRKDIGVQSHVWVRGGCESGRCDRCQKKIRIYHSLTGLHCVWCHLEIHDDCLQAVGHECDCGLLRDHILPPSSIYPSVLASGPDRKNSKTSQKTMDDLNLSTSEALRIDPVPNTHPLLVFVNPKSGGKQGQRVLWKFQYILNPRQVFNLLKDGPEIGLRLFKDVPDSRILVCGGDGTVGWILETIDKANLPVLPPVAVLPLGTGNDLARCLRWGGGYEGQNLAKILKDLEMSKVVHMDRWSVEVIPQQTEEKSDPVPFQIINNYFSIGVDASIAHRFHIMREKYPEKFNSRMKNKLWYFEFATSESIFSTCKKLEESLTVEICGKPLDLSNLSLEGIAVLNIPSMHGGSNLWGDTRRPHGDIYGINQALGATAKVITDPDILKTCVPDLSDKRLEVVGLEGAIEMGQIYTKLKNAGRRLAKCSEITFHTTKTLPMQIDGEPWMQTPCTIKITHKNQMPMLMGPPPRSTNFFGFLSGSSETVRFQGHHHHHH
Experimental for Human venous whole blood: Human Whole Blood IFN-γ Assay
Human venous whole blood (22.5 μL per well), obtained from healthy donors, was pre-treated with compounds for one hour at 37° C. in a humidified 95% air/5% CO2 incubator. The blood was stimulated with 2.5 μL anti-human CD3 and anti-CD28 mAb at a final concentration of 1 μg/mL each for 24 hours at 37° C. IFN-γ in the supernatants was measured using AlphLISA kit (Cat # AL217).

For the molecule `CC(c1cccc2c1OC(F)(F)O2)N1C[C@H](C)N(c2cc(=O)n(C)c3ccc(C#N)nc23)C[C@H]1C` (single isomer, unassigned) [Example 1216], the IC50 at human DGKα (liposome (LIPGLO) assay) came to 83000 nM; on human DGKζ (liposome (LIPGLO) assay) it was 150 nM. Also, in the experiment with Human venous whole blood (setting [1]), the EC50 is 1800 nM.

For the molecule `C[C@@H]1CN(c2cc(=O)n(C)c3ccc(C#N)nc23)[C@@H](C)CN1C(c1ccc(O)cc1F)C(F)(F)F` (stereo partly drawn) [Example 625], the results for the IC50 on human DGKα (liposome (LIPGLO) assay) and on human DGKζ (liposome (LIPGLO) assay) were 230 nM and 2400 nM, respectively. Further, in the experiment with Human venous whole blood (setting [2]), the EC50 amounted to 700 nM.

On to `CC[C@@H]1CN(c2cc(=O)n(C)c3ccc(C#N)nc23)[C@@H](C)CN1C(C)c1ccc(OC)cc1` (single isomer, unassigned) [Example 1351], for which the results for the IC50 at human DGKα (liposome (LIPGLO) assay) and at human DGKζ (liposome (LIPGLO) assay) were 1100 nM and 780 nM, respectively. In addition, the EC50 in the experiment on Human venous whole blood (setting [1]) is 740 nM.

As for `C[C@@H]1CN(c2cc(=O)n(C)c3ccc(C#N)nc23)[C@@H](C)CN1Cc1ccc(OC(F)(F)F)c(Cl)c1` [Example 611], the IC50 at human DGKα (liposome (LIPGLO) assay) came to 6800 nM; at human DGKζ (liposome (LIPGLO) assay) it was 21000 nM. Also, in the experiment with Human venous whole blood (setting [2]), the EC50 came out at 3700 nM.

For the molecule `CC(C)Oc1ccc(C(c2cccc(F)c2)N2C[C@H](C)N(c3cc(=O)n(C)c4ccc(C#N)nc34)C[C@H]2C)nc1` (stereo partly drawn) [Example 691], the IC50 on human DGKα (liposome (LIPGLO) assay) was 4500 nM; at human DGKζ (liposome (LIPGLO) assay), 560 nM. Moreover, the EC50 in the experiment with Human venous whole blood (setting [1]) is 2700 nM.

As to `CCC(c1ccc(OC(C)C)cc1)N1C[C@H](C)N(c2cc(=O)n(C)c3ccc(C#N)nc23)C[C@H]1CC` (single isomer, unassigned) [Example 1448], the IC50 worked out at 4200 nM on human DGKα (liposome (LIPGLO) assay) and 1700 nM on human DGKζ (liposome (LIPGLO) assay). In addition, in the experiment on Human venous whole blood (setting [1]), the EC50 amounted to 1600 nM.

On to `CC(c1ccc(C#N)cc1)N1CCN(c2c(C#N)c(=O)n(C)c3ccc(C#N)nc23)C[C@H]1C` (stereo partly drawn) [Example 955], for which the results for the IC50 at human DGKα (DGKα liposome (LIPGLO) assay) and on human DGKζ (DGKζ liposome (LIPGLO) assay) were 220 nM and 3000 nM, respectively. Further, the EC50 with Human venous whole blood (setting [3]) came out at 20000 nM.

Take `C[C@H]1CN(C(c2ccc(F)cc2)c2ccc(C(F)(F)F)cn2)[C@H](CO)CN1c1cc(=O)n(C)c2ccc(C#N)nc12` (single isomer, unassigned) [Example 1388]: the IC50 was 1100 nM on human DGKα (liposome (LIPGLO) assay) and 2800 nM on human DGKζ (liposome (LIPGLO) assay). Also, in the experiment with Human venous whole blood (setting [2]), the EC50 amounted to 880 nM.

Take `C[C@@H]1CN(c2cc(=O)n(C)c3ccc(C#N)nc23)[C@@H](C)CN1C(c1ccc(F)cc1)C(F)(F)F` (single isomer, unassigned) [Example 582]: the IC50 on human DGKα (liposome (LIPGLO) assay) stood at 440 nM; on human DGKζ (liposome (LIPGLO) assay), 6000 nM. Besides, in the experiment on Human venous whole blood (setting [1]), the EC50 worked out at 1700 nM.

For `C[C@@H]1CN(c2c(C#N)c(=O)n(C)c3ccc(C#N)nc23)[C@@H](C)CN1C(c1ccc(F)cc1)c1ncccc1F` (single isomer, unassigned) [Example 821], the IC50 on human DGKα (DGKα liposome (LIPGLO) assay) was 2700 nM; at human DGKζ (DGKζ liposome (LIPGLO) assay) it was 6500 nM. The EC50 in the experiment with Human venous whole blood (setting [3]) worked out at 3400 nM.

Consider `Cc1cccc(C(c2ccc(F)cc2)N2CCN(c3c(C#N)c(=O)n(C)c4ccc(C#N)nc34)C[C@H]2C)c1` (stereo partly drawn) [Example 917], for which the values for the half-inhibitory concentration (IC50) at human DGKα (DGKα liposome (LIPGLO) assay) and on human DGKζ (DGKζ liposome (LIPGLO) assay) were 6100 nM and 700 nM, respectively. Further, in the experiment on Human venous whole blood (setting [3]), the EC50 amounted to 850 nM.

On to `CC[C@@H]1CN(c2cc(=O)n(C)c3ccc(C#N)nc23)[C@@H](C)CN1C(c1ccc(Cl)cc1)c1ccccn1` (single isomer, unassigned) [Example 422], for which the results for the IC50 on human DGKα (liposome (LIPGLO) assay) and on human DGKζ (liposome (LIPGLO) assay) were 120 nM and 89 nM, respectively. For the same molecule, the concentration for a half-maximal effect (EC50) in the experiment on Human venous whole blood (setting [1]) came out at 220 nM.

`C[C@@H]1CN(c2cc(=O)n(C)c3ccc(C#N)nc23)[C@@H](C)CN1C(c1ccc(F)cc1)c1cnn2ccccc12` (single isomer, unassigned) [Example 699]: the IC50 on human DGKα (liposome (LIPGLO) assay) turned out to be 47000 nM; on human DGKζ (liposome (LIPGLO) assay), 2100 nM. The EC50 in the experiment with Human venous whole blood (setting [1]) was determined as 980 nM.

For the molecule `CC(c1ccc(C#N)cc1F)N1C[C@H](C)N(c2cc(=O)n(C)c3ccc(C#N)nc23)C[C@H]1C` (single isomer, unassigned) [Example 1227], the IC50 is 51 nM at human DGKα (liposome (LIPGLO) assay) and 110 nM on human DGKζ (liposome (LIPGLO) assay). In the experiment on Human venous whole blood (setting [1]), the concentration giving a half-maximal response (EC50) is 670 nM.

As to `COc1ncccc1C(c1ccc(F)cc1)N1CCN(c2c(C#N)c(=O)n(C)c3ccc(C#N)nc23)C[C@H]1C` (single isomer, unassigned) [Example 895], the 50% inhibitory concentration (IC50) is 710 nM at human DGKα (DGKα liposome (LIPGLO) assay) and 2700 nM at human DGKζ (DGKζ liposome (LIPGLO) assay). In the experiment on Human venous whole blood (setting [3]), the 50% effective concentration (EC50) was 1800 nM.

In the case of `CC(c1ccc(-n2cncn2)cc1)N1C[C@H](C)N(c2cc(=O)n(C)c3ccc(C#N)nc23)C[C@H]1C` (single isomer, unassigned) [Example 1238], the IC50 amounted to 200 nM at human DGKα (liposome (LIPGLO) assay) and 3200 nM at human DGKζ (liposome (LIPGLO) assay). Also, in the experiment with Human venous whole blood (setting [1]), the EC50 amounted to 9700 nM.

Take `CCC(c1cc(Cl)cc2c1OCC2)N1C[C@H](C)N(c2cc(=O)n(C)c3ccc(C#N)nc23)C[C@H]1C` (single isomer, unassigned) [Example 356]: the IC50 on human DGKα (liposome (LIPGLO) assay) was over 250000 nM; on human DGKζ (liposome (LIPGLO) assay), 420 nM. For the same molecule, the EC50 in the experiment on Human venous whole blood (setting [2]) turned out to be 20000 nM.

In the case of `COc1ccc(C(C)N2C[C@H](C)N(c3cc(=O)n(C)c4ccc(C#N)nc34)C[C@H]2C)cc1C(F)(F)F` (stereo partly drawn) [Example 1249], the IC50 is 51000 nM on human DGKα (liposome (LIPGLO) assay) and 640 nM on human DGKζ (liposome (LIPGLO) assay). Besides, the EC50 in the experiment with Human venous whole blood (setting [2]) was 17000 nM.

Regarding `C[C@@H]1CN(c2c(C#N)c(=O)n(C)c3ccc(C#N)nc23)[C@@H](C)CN1C(c1ccccc1)c1cc(F)cc(F)c1` (single isomer, unassigned) [Example 814], the IC50 stood at 35000 nM on human DGKα (DGKα liposome (LIPGLO) assay) and 1000 nM on human DGKζ (DGKζ liposome (LIPGLO) assay). Further, the EC50 in the experiment on Human venous whole blood (setting [3]) was 5500 nM.

For `C[C@@H]1CN(c2cc(=O)n(C)c3ccc(C#N)nc23)[C@@H](C)CN1C(c1ccc(F)cc1)c1cc(C(C)(C)C)on1` (single isomer, unassigned) [Example 731], the values for the IC50 at human DGKα (DGKα liposome (LIPGLO) assay) and at human DGKζ (DGKζ liposome (LIPGLO) assay) were 8500 nM and 330 nM, respectively. Further, the EC50 with Human venous whole blood (setting [3]) turned out to be 950 nM.

Take `CC(c1ccc(-n2cncn2)cc1)N1C[C@H](C)N(c2cc(=O)n(C)c3ccc(C#N)nc23)C[C@H]1C` (single isomer, unassigned) [Example 1239]: the IC50 was found to be 26000 nM at human DGKα (liposome (LIPGLO) assay) and 23000 nM at human DGKζ (liposome (LIPGLO) assay). Further, the EC50 in the experiment with Human venous whole blood (setting [1]) turned out to be 20000 nM.

On to `CC(=O)N1CC(c2noc(C(c3ccc(F)cc3)N3C[C@H](C)N(c4cc(=O)n(C)c5ccc(C#N)nc45)C[C@H]3C)n2)C1` (single isomer, unassigned) [Example 1296], for which the IC50 at human DGKα (liposome (LIPGLO) assay) worked out at 2400 nM; at human DGKζ (liposome (LIPGLO) assay), 5000 nM. In addition, the 50% effective concentration (EC50) in the experiment with Human venous whole blood (setting [2]) worked out at 20000 nM.

On to `C[C@@H]1CN(c2c(C#N)c(=O)n(C)c3ccc(C#N)nc23)CCN1Cc1ccccc1Cl` [Example 997], for which the IC50 on human DGKα (DGKα liposome (LIPGLO) assay) amounted to 1100 nM; at human DGKζ (DGKζ liposome (LIPGLO) assay) it was 3300 nM. The EC50 in the experiment on Human venous whole blood (Homo sapiens, 24 h, anti-CD3 plus anti-CD28, 24 hours, 3 μM reference compound = 100% activation) was 20000 nM.

Consider `COC[C@@H]1CN(c2cc(=O)n(C)c3ccc(C#N)nc23)[C@@H](C)CN1C(c1ccc(F)cc1)c1nc(C2CC2)cs1` (single isomer, unassigned) [Example 1396], for which the IC50 was 62 nM at human DGKα (liposome (LIPGLO) assay) and 12 nM at human DGKζ (liposome (LIPGLO) assay). In addition, the EC50 in the experiment on Human venous whole blood (setting [1]) came out at 26 nM.

With `CCC(c1ccc(C2CC2)cc1)N1C[C@H](C)N(c2cc(=O)n(C)c3ccc(C#N)nc23)C[C@H]1C` (single isomer, unassigned) [Example 1220], the IC50 on human DGKα (liposome (LIPGLO) assay) stood at 110 nM; at human DGKζ (liposome (LIPGLO) assay), 95 nM. The EC50 in the experiment with Human venous whole blood (setting [1]) amounted to 120 nM.

In the case of `CC[C@H]1CN(C(C)c2ccc(OC(F)F)cc2)[C@H](CC)CN1c1cc(=O)n(C)c2ccc(C#N)nc12` (single isomer, unassigned) [Example 1374], the IC50 on human DGKα (liposome (LIPGLO) assay) was found to be 290 nM; at human DGKζ (liposome (LIPGLO) assay) it was 280 nM. Further, the EC50 with Human venous whole blood (setting [1]) is 2700 nM.
